Values after ≈ are worked out from the molar mass of the structure shown.

Results on two compounds are retold here after patent US20240008491A1, “PESTICIDE COMPOSITION FOR C[…] CROWN ROT AND APPLICATION” (priority 2022, published 2024).

For the assay, the system named is wheat crown rot. Kind of assay: indoor toxicity test (growth rate method). The conditions noted are these: toxicity to wheat crown rot. The class given is cell-based. As for the experimental part:
The method of combining indoor toxicity test and field experiment is adopted.
First of all, co-toxicity coefficients of the complex pesticide of different proportions to wheat crown rot are obtained through indoor toxicity test (growth rate method); and then, the control effect is determined through field efficacy test, and the formula proportion and optimal application amount of the complex pesticide are determined.

In general, EC50 refers to the concentration at which the effect is half-maximal. Lower therefore signals greater potency. Compound `C=CCOC(Cn1ccnc1)c1ccc(Cl)cc1Cl` (centres unmarked) [Imazalil (B), Imazalil] registered an EC50 of 0.175 µg/mL (≈ 0.589 µM).

As for `OC(Cc1ccccc1Cl)(Cn1nc[nH]c1=S)C1(Cl)CC1` (centres unmarked) [Prothioconazole (A), Prothioconazole], a half-maximal effect (EC50) was put at 1.37 µg/mL (≈ 3.98 µM).
